Assay results as given in patent US20100093648A1, “TREATMENT OF MACULAR DEGENERATION-RELATED DISORDERS” (priority 2008, published 2010).

System: APOE4 HF-C mice
Experiment: Electroretinogram (ERG) in aged APOE4 mice on high fat/cholesterol diet (murine AMD model)
Type: in vivo, mouse
Settings: aged male APOE4 mice, high cholesterol diet 8 weeks, scyllo-inositol 10 mg/ml in drinking water ad libitum
Excerpt: The ocular pathologies of AMD may be recapitulated in a murine model by applying three physiologically relevant risk factors: specific APOE genotype (APOE4), advanced age and high fat/cholesterol-rich (HF-C) diet. These mice develop sub-retinal pigment epithelium (RPE) deposits (basal deposits), RPE atrophy and choroidal neovascularization in a temporal, non-fully penetrant manner that is analogous to human AMD progression [Malek, G., et al., (2005), Proc Natl Acad Sci USA 102, 11900-5]. An electrophysiological phenotype is associated with this pathology. […] The ability of scyllo-inositol (AZD-103/ELN005) to prevent retina/RPE damage, the buildup of basal deposits and attenuation of the ERG was evaluated.
Aged male APOE4 mice housed conventionally, under ambient conditions maintained on water ad libitum and normal mouse chow (normal diet or ND), were assigned to three treatment groups. This assignment was random, although the ages of the animals were balanced across the groups. One group was maintained on the normal diet. The second group was switched to a high fat cholesterol (HFC) diet (35% fat, 20% protein, 45% carbohydrates, 1.25% cholesterol, 0.5% sodium cholate) for 8 weeks. The third group received scyllo-inositol (AZD-103/ELN005) ad libitum (dissolved in drinking water at 10 mg/ml) for 7 days. They were then switched to the HF-C diet for 8 weeks, during which time they continued to receive scyllo-inositol (AZD-103/ELN005) ad libitum. […] ERG tracings were recorded using a platinum iridium wire loop electrode placed in contact with the eye along with a drop of 2.5% hydroxypropyl methylcellulose. […] The a-wave amplitude was measured from baseline to the a-wave trough, and the b-wave amplitude was measured from the a-wave trough to the b-wave peak. • 4. […] Quantitation of photoreceptors. […] The thickness of outer nuclear layer and the linear density of photoreceptor will be calculated. […]
After 8 weeks, animals were assessed by electroretinogram. […] The electrophysiological response to these flashes was recorded by an electrode touching the surface of the eye. […]

Substance: scyllo-inositol [scyllo-inositol (AZD-103/ELN005)]
- a-wave amplitude (ERG): consistent
- retinal function as demonstrated by ERGs: prevented the retinal defect that was caused by high cholesterol diet
- scotopic b-wave amplitude (ERG) (all flash intensities, compared with normal diet controls): virtually indistinguishable from the normal diet control animals
